Test [1] has as its system MDA-MB-231 cells. Briefly: ultra-low adherent 3D-spheroid suspension cell viability (3D Cell Titer-Glo), 120 hours. Format: cell-based. The following applies: Homo sapiens. On the procedure:
For ultra-low adherent 3D-spheroid suspensions, MDA-MB-231 cells were plated in 384-well format in media containing 10% Matrigel® and allowed to form spheroids overnight. Cells were treated with indicated molecules from compound stock plates using a JANUS® Workstation pin tool for 120 hours. To measure cell viability, 3D Cell Titer-Glo® was added to wells for 15 minutes at room temperature and luminescence was measured on an EnVision™ 2104 Multilabel Plate Reader.

Test [2] deals with AAK1 (Homo sapiens (Human), UniProt Q2M2I8). The test can be described thus: KINOMEscan. It is filed as binding. The settings on record: AAK1, 10000 nM; read-out: Percent Control.
The target in test [3] is CAMKK2 (Homo sapiens (Human), UniProt Q96RR4). The test can be described thus: KINOMEscan. Format: binding. The following applies: CAMKK2, 10000 nM; read-out: Percent Control.
In test [4] the target is FLT3(D835Y) (Homo sapiens (Human), UniProt P36888, D835Y). The test can be described thus: KINOMEscan. It is filed as binding. The settings on record: 10000 nM, read-out: Percent Control.
In test [5] the target is HUNK (Homo sapiens (Human), UniProt P57058). The test can be described thus: KINOMEscan. It is filed as binding. The following applies: 10000 nM, read-out: Percent Control.
The target in test [6] is IRAK1 (Homo sapiens (Human), UniProt P51617). The test can be described thus: KINOMEscan. Format: binding. The following applies: read-out: Percent Control.
The target of test [7] is MAP3K4 (Homo sapiens (Human), UniProt Q9Y6R4). Briefly: KINOMEscan. Format: binding. The following applies: MAP3K4, 10000 nM; read-out: Percent Control.
Test [8] addresses PFTK1 (Homo sapiens (Human), UniProt O94921). The test can be described thus: KINOMEscan. Format: binding. The settings on record: PFTK1, 10000 nM; read-out: Percent Control.
For test [9], the target named is PKN1 (Homo sapiens (Human), UniProt Q16512). Briefly: KINOMEscan. The following applies: PKN1, 10000 nM; read-out: Percent Control. It is filed as binding.
Test [10] has as its target PRKG2 (Homo sapiens (Human), UniProt Q13237). The test can be described thus: KINOMEscan. The settings on record: PRKG2, 10000 nM; read-out: Percent Control. Format: binding.
Test [11] has as its target DCLK1 (Homo sapiens (Human), UniProt O15075). The test can be described thus: Biochemical IC50 (Invitrogen) of off-targets.
Test [12] concerns the target DCLK2 (Homo sapiens (Human), UniProt Q8N568). Briefly: Biochemical IC50 (Invitrogen) of off-targets.
The target in test [13] is PLK1 (Homo sapiens (Human), UniProt P53350). Briefly: Biochemical IC50 (Invitrogen) of off-targets.
Test [14] deals with STK33 (Homo sapiens (Human), UniProt Q9BYT3). The test can be described thus: Biochemical IC50 (Invitrogen) of off-targets.
The target in test [15] is TNK1 (Homo sapiens (Human), UniProt Q13470). Briefly: Biochemical IC50 (Invitrogen) of off-targets.

Read-outs that look alike come from different tables or passages of the source.

PKN1, sequence (Q16512 whole entry): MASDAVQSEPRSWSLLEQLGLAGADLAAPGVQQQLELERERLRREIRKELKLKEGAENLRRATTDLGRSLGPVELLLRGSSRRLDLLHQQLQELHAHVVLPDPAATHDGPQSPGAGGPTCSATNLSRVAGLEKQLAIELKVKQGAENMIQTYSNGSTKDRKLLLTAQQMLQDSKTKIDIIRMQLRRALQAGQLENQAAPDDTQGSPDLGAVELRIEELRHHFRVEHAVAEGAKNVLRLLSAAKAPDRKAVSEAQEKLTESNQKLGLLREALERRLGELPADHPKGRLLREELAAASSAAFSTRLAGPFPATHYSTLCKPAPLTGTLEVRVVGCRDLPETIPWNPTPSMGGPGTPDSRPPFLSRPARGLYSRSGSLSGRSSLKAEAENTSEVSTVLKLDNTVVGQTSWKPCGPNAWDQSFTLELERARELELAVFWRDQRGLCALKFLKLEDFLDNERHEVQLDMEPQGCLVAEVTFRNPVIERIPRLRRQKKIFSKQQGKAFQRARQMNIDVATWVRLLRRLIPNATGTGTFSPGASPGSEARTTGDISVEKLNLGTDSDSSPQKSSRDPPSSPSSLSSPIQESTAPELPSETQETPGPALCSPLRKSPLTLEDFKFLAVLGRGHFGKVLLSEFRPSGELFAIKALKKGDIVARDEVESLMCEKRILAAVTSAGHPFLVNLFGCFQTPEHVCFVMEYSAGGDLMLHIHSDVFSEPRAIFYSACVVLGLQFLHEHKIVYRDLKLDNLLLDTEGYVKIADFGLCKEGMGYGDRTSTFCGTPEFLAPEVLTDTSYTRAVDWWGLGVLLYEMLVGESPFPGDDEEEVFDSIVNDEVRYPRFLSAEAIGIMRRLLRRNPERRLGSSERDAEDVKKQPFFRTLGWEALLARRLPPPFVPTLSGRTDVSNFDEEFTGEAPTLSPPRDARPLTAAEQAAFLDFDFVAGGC
CAMKK2, sequence (Q96RR4 whole entry): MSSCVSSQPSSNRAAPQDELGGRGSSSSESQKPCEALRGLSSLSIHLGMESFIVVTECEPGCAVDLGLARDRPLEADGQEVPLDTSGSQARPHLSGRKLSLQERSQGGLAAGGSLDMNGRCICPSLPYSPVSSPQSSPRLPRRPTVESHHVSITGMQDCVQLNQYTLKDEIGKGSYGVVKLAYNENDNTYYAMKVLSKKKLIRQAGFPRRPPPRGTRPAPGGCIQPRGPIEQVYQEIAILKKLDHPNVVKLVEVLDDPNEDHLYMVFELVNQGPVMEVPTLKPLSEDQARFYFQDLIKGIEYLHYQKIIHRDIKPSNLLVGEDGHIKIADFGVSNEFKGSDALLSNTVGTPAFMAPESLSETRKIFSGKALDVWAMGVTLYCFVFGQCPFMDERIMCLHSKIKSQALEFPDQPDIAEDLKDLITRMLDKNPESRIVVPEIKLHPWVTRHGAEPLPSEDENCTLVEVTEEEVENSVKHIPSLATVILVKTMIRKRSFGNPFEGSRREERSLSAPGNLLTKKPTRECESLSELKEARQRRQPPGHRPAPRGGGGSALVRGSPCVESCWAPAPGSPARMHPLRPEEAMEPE
PFTK1, sequence (O94921 whole entry): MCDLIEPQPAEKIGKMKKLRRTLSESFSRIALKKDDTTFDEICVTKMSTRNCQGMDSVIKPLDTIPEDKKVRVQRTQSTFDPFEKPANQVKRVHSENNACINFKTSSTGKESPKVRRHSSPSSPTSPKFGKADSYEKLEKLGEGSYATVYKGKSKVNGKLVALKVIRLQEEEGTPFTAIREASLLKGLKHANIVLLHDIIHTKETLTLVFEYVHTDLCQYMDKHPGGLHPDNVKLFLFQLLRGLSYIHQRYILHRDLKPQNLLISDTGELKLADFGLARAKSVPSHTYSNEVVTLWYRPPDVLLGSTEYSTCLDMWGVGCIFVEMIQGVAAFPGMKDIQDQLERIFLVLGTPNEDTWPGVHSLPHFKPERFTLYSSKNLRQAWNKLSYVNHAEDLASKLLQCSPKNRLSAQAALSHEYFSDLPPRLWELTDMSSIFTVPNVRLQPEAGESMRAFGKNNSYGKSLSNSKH
IRAK1, sequence (P51617 whole entry): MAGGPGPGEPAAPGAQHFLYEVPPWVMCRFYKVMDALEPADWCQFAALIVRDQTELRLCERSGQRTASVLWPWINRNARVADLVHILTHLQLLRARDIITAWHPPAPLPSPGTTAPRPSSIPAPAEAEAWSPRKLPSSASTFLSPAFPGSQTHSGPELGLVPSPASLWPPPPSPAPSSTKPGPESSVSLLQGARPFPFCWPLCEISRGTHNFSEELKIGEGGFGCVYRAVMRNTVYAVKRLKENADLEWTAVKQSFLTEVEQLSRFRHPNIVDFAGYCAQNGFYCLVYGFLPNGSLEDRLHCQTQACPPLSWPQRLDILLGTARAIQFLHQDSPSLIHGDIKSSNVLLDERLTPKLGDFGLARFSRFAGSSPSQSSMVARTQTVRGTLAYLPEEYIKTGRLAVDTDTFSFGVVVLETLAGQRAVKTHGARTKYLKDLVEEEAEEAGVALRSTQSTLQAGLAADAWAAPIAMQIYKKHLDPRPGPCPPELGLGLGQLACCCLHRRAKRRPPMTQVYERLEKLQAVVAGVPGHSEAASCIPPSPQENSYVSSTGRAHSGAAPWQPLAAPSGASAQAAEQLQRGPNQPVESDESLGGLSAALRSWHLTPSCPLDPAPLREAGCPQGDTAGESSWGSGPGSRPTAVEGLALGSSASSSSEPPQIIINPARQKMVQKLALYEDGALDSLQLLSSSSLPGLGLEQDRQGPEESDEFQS
PRKG2, sequence (Q13237 whole entry): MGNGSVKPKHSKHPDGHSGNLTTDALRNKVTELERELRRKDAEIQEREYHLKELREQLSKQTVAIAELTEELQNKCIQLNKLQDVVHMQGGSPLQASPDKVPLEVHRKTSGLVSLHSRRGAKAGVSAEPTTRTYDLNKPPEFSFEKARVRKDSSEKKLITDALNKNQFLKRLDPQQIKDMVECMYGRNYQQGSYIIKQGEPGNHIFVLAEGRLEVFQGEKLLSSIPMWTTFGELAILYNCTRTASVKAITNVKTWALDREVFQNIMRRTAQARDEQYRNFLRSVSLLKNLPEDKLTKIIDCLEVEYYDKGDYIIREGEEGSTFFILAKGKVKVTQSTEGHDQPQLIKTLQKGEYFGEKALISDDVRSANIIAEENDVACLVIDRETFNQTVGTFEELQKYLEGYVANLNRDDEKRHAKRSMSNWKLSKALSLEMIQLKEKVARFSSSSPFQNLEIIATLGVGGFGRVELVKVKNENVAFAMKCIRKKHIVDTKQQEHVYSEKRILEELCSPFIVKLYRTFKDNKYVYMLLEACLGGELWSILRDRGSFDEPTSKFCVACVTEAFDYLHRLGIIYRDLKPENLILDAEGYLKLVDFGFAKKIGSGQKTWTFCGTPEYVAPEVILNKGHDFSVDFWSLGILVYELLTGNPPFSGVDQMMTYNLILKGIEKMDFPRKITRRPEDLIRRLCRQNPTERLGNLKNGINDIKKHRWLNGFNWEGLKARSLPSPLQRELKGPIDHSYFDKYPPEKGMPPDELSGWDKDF
HUNK, sequence (P57058 whole entry): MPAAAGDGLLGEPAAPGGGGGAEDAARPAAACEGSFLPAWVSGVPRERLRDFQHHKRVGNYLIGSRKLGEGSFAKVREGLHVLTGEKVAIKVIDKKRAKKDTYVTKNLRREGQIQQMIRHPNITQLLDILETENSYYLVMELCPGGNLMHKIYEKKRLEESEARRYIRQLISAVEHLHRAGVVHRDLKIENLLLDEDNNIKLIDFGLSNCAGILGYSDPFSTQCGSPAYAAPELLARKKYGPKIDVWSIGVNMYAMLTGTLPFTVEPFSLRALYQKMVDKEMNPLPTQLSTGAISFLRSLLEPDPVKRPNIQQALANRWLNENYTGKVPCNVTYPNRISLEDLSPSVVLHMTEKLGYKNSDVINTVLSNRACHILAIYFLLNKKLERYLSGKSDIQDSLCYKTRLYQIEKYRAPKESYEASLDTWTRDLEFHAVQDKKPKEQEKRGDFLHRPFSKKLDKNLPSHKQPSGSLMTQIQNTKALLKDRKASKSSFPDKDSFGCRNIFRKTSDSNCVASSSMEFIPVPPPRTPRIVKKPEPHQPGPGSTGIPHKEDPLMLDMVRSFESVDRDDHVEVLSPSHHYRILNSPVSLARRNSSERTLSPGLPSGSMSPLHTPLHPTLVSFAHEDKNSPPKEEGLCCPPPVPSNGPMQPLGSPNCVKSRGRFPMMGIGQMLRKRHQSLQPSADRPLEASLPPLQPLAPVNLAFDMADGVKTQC
TNK1, sequence (Q13470 whole entry): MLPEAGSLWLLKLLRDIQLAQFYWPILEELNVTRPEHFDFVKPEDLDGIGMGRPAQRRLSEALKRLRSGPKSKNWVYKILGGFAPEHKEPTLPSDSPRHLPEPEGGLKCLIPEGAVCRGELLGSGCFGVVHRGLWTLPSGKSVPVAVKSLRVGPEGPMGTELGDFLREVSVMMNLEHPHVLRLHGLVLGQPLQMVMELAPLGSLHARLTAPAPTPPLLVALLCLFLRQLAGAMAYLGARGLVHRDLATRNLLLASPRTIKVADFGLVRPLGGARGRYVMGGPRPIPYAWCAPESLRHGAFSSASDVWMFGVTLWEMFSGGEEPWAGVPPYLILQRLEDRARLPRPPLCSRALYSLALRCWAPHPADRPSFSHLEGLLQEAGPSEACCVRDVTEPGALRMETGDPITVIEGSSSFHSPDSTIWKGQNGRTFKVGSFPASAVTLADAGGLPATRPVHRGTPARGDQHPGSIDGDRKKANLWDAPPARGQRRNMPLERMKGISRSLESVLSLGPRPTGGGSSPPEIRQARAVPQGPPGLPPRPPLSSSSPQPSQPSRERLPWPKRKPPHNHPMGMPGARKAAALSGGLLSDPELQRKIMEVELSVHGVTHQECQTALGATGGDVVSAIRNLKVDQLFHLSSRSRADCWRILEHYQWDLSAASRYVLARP

On to `COc1cc(N2CCC(N3CCN(C)CC3)CC2)ccc1Nc1ncc2c(n1)N(C)c1sc(C)nc1C(=O)N2` [Compound 3, 6-((2-methoxy-4-(4-(4-methylpiperazin-1-yl)piperidin-1-yl)phenyl)amino)-2,4-dimethyl-4,9-dihydro-10H-pyrimido[5,4-b]thiazolo[5,4-e][1,4]diazepin-10-one], for which the IC50 in [1] worked out at 6.8 µM. For the same compound, the remaining binding at 10 µM was 48% in test [2]; 80% in test [3]; 76% in test [4]; 95% in [5]; 100% in test [6] (IRAK1, 10000 nM); 73% in test [7]. The remaining binding at 10 µM turned out to be 90% in test [8], 69% in [9] and 73% in test [10].

`COc1cc(N2CCC(N3CCN(C)CC3)CC2)ccc1Nc1ncc2c(n1)N(C)c1sc(C)nc1C(=O)N2C` [Compound 5, 6-((2-methoxy-4-(4-(4-methylpiperazin-1-yl)piperidin-1-yl)phenyl)amino)-2,4,9-trimethyl-4,9-dihydro-10H-pyrimido[5,4-b]thiazolo[5,4-e][1,4]diazepin-10-one]: the remaining binding at 10 µM in test [3] was 88%; in [4] it was 91%; in [5], 97%; in test [6] (IRAKI, 10000 nM), 100%; in test [7] it was 100%; in test [8], 100%. Also, the remaining binding at 10 µM in test [9] and in [10] was 100% in each case. Also, the IC50 came to 6.5 µM in test [11]; 3.12 µM in [12]; 8.28 µM in [13]; 2.13 µM in [14]; 3.17 µM in test [15].

The values are drawn from patent publication US12365696B2, “Small-molecule focal adhesion kinase (FAK) inhibitors” (DANA-FARBER CANCER INSTITUTE, INC., priority 2019, dated 2025).
